Series [1] relates to human pancreatic cancer SUIT2 cell strain, parent strain. Kind of series: Gemcitabine sensitivity of SUIT2 parent strain. The conditions noted are these: SUIT-2. It counts as cell-based. Here is the method:
(§1) A human pancreatic cancer SUIT2 cell strain was prepared by culturing pancreatic cancer cells resistant to the anticancer agent, gemcitabine, for a long period of time in a medium containing gemcitabine at a low concentration (IC50 value, 100 nM for the resistant strain vs. 5 nM for the parent strain). Subcutaneous tumors were prepared in the same manner as that of Example 10, and 200 μg/200 μL of YB-1 ASO AmNA or control antisense was administered into the blood according to the same protocol (once every two weeks, total 2 times).

Series [2] concerns human pancreatic cancer SUIT2 cell strain, resistant strain. The experiment in a line: Gemcitabine sensitivity of gemcitabine-resistant SUIT2 strain. It counts as cell-based. Particulars: SUIT-2. As to the method:
as §1

Series [3] in a line: General blood and biochemical examinations, mice with Suit2-GR sc tumor. Particulars: Suit2-GR sc Tumor; 10 mg/kg BW i.v. once a week for three weeks; blood one week after final treatment.
Experimental: (§5) Subcutaneous tumor models were created by subcutaneously transplanting gemcitabine-resistant pancreatic cancer SUIT2-GR cells and large intestine cancer HCT116 cells to the thighs of nude mice. After tumors having a volume of 50 mm^3 were formed, 10 mg/kg BW of #10AmNA YB-1 antisense was administered from the caudal veins once a week over three weeks. The tumor diameters were measured over time.
Series [4] in a line: General blood and biochemical examinations, mice with HCT116 sc tumor. The conditions noted are these: 10 mg/kg BW i.v. once a week for three weeks, blood one week after final treatment.
Experimental: as §5
The test system of the next series is HUVEC. Kind of series: Cell cycle analysis by PI flow cytometry, HUVEC. It counts as cell-based. Particulars: 5 nM, 72 hours. As to the method:
(§2) In order to elucidate the mechanism of the pancreatic cancer cell and endothelial cell proliferation inhibitory effect observed in Example 2, YB-1 ASO BNA (TCTcctgcaccCTGg, SEQ ID NO: 2, the parts of the capital letters in the sequence correspond to BNAs, the same shall apply to the following examples) was introduced at a concentration of 5 nM into the endothelial cells (1×10^5/well) under the same conditions as mentioned above. After 72 hours from the introduction, the cells were incubated with PI (1 μg/ml) at 37° C. for 30 minutes, and then cell cycle analysis was performed by using a flow cytometer (FACS CantoII).
A general note: A flow cytometer gives signals particle by particle.

The next series relates to HPAEC cells. The experiment in a line: Cell cycle analysis by PI flow cytometry, HPAEC. It counts as cell-based. The conditions noted are these: 5 nM, 72 hours. Here is the method: as §2
Series [5] can be described thus: Safety of administration of YB-1 ASO BNA into blood, blood biochemical examinations.
Experimental: YB-1 ASO BNA (indicated as “ASO-YBX1” in FIG. 7) at a concentration of 100 μg/200 μL or 200 μg/200 μL was administered once into the blood of nude mice from the caudal veins. After 48 hours, blood was collected, and examined by blood biochemical examinations for ALT, T-Bil, BUN, and creatinin in order to evaluate the liver and kidney functions.
Series [6] has as its system vascular endothelial HUVEC cells. Kind of series: Annexin V-FITC apoptosis observation. In kind it is cell-based.
The subject of series [7] is HCT116 large intestine cancer cells. The experiment in a line: Administration of YB-1 ASO BNA into blood, HCT116 subcutaneous tumor. In kind it is in vivo, nude mice. The conditions noted are these: 200 μg/200 μL caudal vein, once a week, total 3 times. From the text: (§3) The SUIT2 pancreatic cancer cells or HCT116 large intestine cancer cells were subcutaneously transplanted into the thighs of nude mice to prepare subcutaneous tumors in a size of 6 to 7 mm. […] YB-1 ASO BNA suppressed proliferation of the tumors to a size of ¼ to ⅕ of those observed with the control antisense BNA (FIG. 5).

The next series concerns CDK1 and Cyclin B1. The experiment in a line: Protein expression of CDK1 and Cyclin B1 in HUVEC and HPAEC cells. In kind it is cell-based. Particulars: vs control antisense oligonucleotide.
The subject of series [8] is MiaPaCa-luc pancreatic cancer cells. The experiment in a line: Local administration into MiaPaCa-luc subcutaneous tumors, IVIS imaging. In kind it is in vivo, nude mice. The conditions noted are these: 10 μM with atelocollagen 1:1, local, once a week, total twice; vs control antisense oligo BNA. As to the method: The MiaPaCa-luc pancreatic cancer cells stably expressing luciferase were subcutaneously transplanted into the thighs of nude mice to prepare subcutaneous tumors in a size of 6 to 7 mm. A mixture of YB-1 ASO BNA (final concentration, 10 μM) and atelocollagen implant at a volume ration of 1:1 was locally administered into the tumors (once a week, total twice), and the tumor volume (luciferase activity) was evaluated over time by IVIS imaging.

The test system of series [9] is vascular endothelial cells. The experiment in a line: Proliferation by MTT assay, endothelial cells. Particulars: final concentration 5 nM, vs control antisense oligo-nucleic acid. It counts as cell-based. Here is the method: (§4) Then, pancreatic cancer and vascular endothelial cell proliferation-suppressing effects of ASO#10 (also referred to as “YB-1 ASO”, TCTcctgcaccCTGg, SEQ ID NO: 2) were examined. The cells were inoculated into wells of a 96-well plate at a density of 60% confluent, ASO#10 was introduced into the pancreatic cancer cells at a final concentration of 50 nM, and endothelial cells at a final concentration of 5 nM on the next day by using the gene transduction reagent Lipofectamine RNAiMax, and then the proliferation ability was periodically measured by the MTT assay method. […] In addition, it was also confirmed that gastric cancer and breast cancer are also knocked down by ASO#10.

Series [10] relates to YB-1. Kind of series: YB-1 expression in tumor, liver, kidney after administration into blood, real-time RT-PCR. In kind it is in vivo, nude mice. The conditions noted are these: HCT116 model, 200 μg/200 μL caudal vein, once a week, total 2 times, 48 hours after final administration. As to the method: After 48 hours from the final administration, subcutaneous tumors, livers, and kidneys were extracted, RNAs were extracted, and YB-1 expression was analyzed by real-time RT-PCR.

Series [11] concerns YB-1. Kind of series: Screening of antisense oligo-nucleic acids by YB-1 expression-inhibitory ability in cancer cells (Lipofectamine RNAiMax). In kind it is cell-based, human.
Series [12] has as its system SUIT2 pancreatic cancer cells. Kind of series: Administration of YB-1 ASO BNA into blood, SUIT2 subcutaneous tumor. The conditions noted are these: 200 μg/200 μL caudal vein, once a week, total 3 times. In kind it is in vivo, nude mice.
From the text: as §3

For a further series, the system named is YB-1 and CD31. The experiment in a line: Immunostaining of YB-1 and CD31 in frozen tumor sections. In kind it is in vivo, nude mice. Particulars: HCT116 model; vs control antisense BNA.
A further series concerns pancreatic cancer cells. Kind of series: Proliferation by MTT assay, pancreatic cancer cells. In kind it is cell-based. Particulars: final concentration 50 nM, vs control antisense oligo-nucleic acid. As to the method: as §4
A general note: Formazan colour is commonly taken as a measure of viable cells.

[BNA] = bridged nucleic acid nucleotide (BNA), bridge type not specified for this compound; d = 2'-deoxy (DNA)

One may read the IC50 as the point on the concentration scale where inhibition reaches its midpoint. For `Nc1ccn([C@@H]2O[C@H](CO)[C@@H](O)C2(F)F)c(=O)n1` [gemcitabine], the IC50 in series [1] worked out at 5 nM; in series [2] it was 100 nM.
In [3], “CATttcgaagtACTc (antisense CATTTCGAAGTACTC; AmNA-modified units marked by uppercase, key not given here) [Ctrl]” displayed an ALT of 45 ± 19 IU/L, an AST of 170 ± 183 IU/L, a BUN of 27.9 ± 5.4 mg/dL and a CRE of 0.10 ± 0.03 mg/dL. Besides, in series [3], the HCT worked out at 38.5 ± 2.1%, the HGB is on record as 12.2 ± 0.6 g/dL, the PLT is recorded as 100.5 ± 33.3 ×10^4/μl and the RBC is listed as 779 ± 39 ×10^4/μl. In [3], the T-BIL is 0.03 ± 0.01 mg/dL and the WBC is 29 ± 12 ×10^2/μl. In series [4], this compound had an ALT of 26 ± 3 IU/L, an AST of 80 ± 10 IU/L, a BUN of 21.2 ± 2.0 mg/dL and a CRE of 0.07 ± 0.03 mg/dL. Further, in [4], the HCT stood at 35.7 ± 2.7%, the HGB was 13.1 ± 0.3 g/dL, the PLT is given as 136.2 ± 10.8 ×10^4/μl and the RBC is reported as 715 ± 55 ×10^4/μl. In [4], the T-BIL is 0.06 ± 0.02 mg/dL and the WBC is given as 48 ± 8 ×10^2/μl.
Turning to “CATttcgaagtACTc (antisense CATTTCGAAGTACTC; sugars from the 5' end [BNA]3 d8 [BNA]3 d1, backbone and methylation of C not given here) [control antisense oligo-BNA, reference compound]”, in the series on HUVEC, the G2/M fraction is on record as 22.1% and the subG1 fractionation is given as 2.0%. In the series on HPAEC cells, this compound came in with a G2/M fraction of 28.5% and a subG1 fractionation of 1.3%. Besides, the “ALT, T-Bil, BUN, creatinin (liver and kidney functions)” value in series [5] (100 μg/200 μL or 200 μg/200 μL once, caudal vein, 48 hours) was “any functional abnormality was not observed”. In addition, the “liver function markers AST and T-Bil” value in series [5] (repeatedly administered 3 times) is listed as “did not show any functional abnormality”. Further, the “Annexin V-positive cells” value in series [6] was “hardly observed”.
On to “TCTcctgcaccCTGg (TCTCCTGCACCCTGG; chemistry not fully specified) [ASO#10]”, for which the “tumor size as fraction of that with control antisense BNA” value in series [7] and in series [12] was “¼ to ⅕” each time. The results for the G2/M fraction in the series with HUVEC and in the series with HPAEC cells were 14.5% and 14.0%, respectively. In addition, the values for the subG1 fractionation with HUVEC and in the series on HPAEC cells were 17.7% and 18.7%, respectively. Further, the “expression levels of CDK1 and Cyclin B1” value with CDK1 and Cyclin B1 is “clearly suppressed”. The “tumor volume (luciferase activity)” value in series [8] is listed as “significant suppression”. Further, in [9], the “endothelial cell proliferation inhibitory effect” value was “Significantly higher”. Moreover, the “YB-1 expression in the tumors, livers, and kidneys as fraction of control antisense BNA” value is “about ⅓” in the series with YB-1 [10] (listed as YB-1 ASO BNA) and “suppresses expression of YB-1” with YB-1 [10] (listed as YB-1 antisense oligo BNA). Further, the “YB-1 knockdown in gastric cancer and breast cancer” value in the series with YB-1 [11] is “knocked down”. Moreover, the “Annexin V-positive cells” value in series [6] is reported as “increase in Annexin V-positive cells”. Further, in the series with YB-1 and CD31, the “expression of YB-1 and CD31 in tumor tissues (immunostaining)” value is on record as “reduced”. In addition, the “pancreatic cancer cell proliferation inhibitory effect” value in the series on pancreatic cancer cells was “Significantly higher”.

Source of the values: patent publication US20170211073A1, “ANTISENSE ANTINEOPLASTIC AGENT” (priority 2014, published 2017).
